Experimental data: PubChem BioAssay AID1918932 (Molecular Pharmacology Branch, DTP, NCI, 2023)

Tested on: 171881-019-R-J1-PDC complex spheroid viability
Test: Anticancer human tumor 171881-019-R-J1-PDC patient-derived invasive breast carcinoma cell line growth inhibition
Conditions: for IC50: curve of first compound; for viability, T/C: stronger effect = lower value
Method in brief: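 Drug combinations with the LSD1 inhibitor iadademstat tested on tumor cells co-cultured as spheroids with endothelial cells and mesenchymal stem cells. Concentrations descended in half-log increments from clinical Cmax or 10 microM.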

[1] = second compound 0.1 µM, first compound 0.00949 µM
[2] = second compound 0.1 µM, first compound 0.03 µM
[3] = second compound 0.1 µM, first compound 0.0949 µM
[4] = second compound 0.1 µM, first compound 0.3 µM
[5] = second compound 0.1 µM, first compound 0.949 µM
[6] = second compound 0.1 µM, first compound 3 µM
[7] = second compound 0.316 µM, first compound 0.00949 µM
[8] = second compound 0.316 µM, first compound 0.03 µM
[9] = second compound 0.316 µM, first compound 0.0949 µM
[10] = second compound 0.316 µM, first compound 0.3 µM
[11] = second compound 0.316 µM, first compound 0.949 µM
[12] = second compound 0.316 µM, first compound 3 µM
[13] = second compound 1 µM, first compound 0.00949 µM
[14] = second compound 1 µM, first compound 0.03 µM
[15] = second compound 1 µM, first compound 0.0949 µM
[16] = second compound 1 µM, first compound 0.3 µM
[17] = second compound 1 µM, first compound 0.949 µM
[18] = second compound 1 µM, first compound 3 µM
[19] = second compound 3.16 µM, first compound 0.00949 µM
[20] = second compound 3.16 µM, first compound 0.03 µM
[21] = second compound 3.16 µM, first compound 0.0949 µM
[22] = second compound 3.16 µM, first compound 0.3 µM
[23] = second compound 3.16 µM, first compound 0.949 µM
[24] = second compound 3.16 µM, first compound 3 µM
[25] = second compound 10 µM, first compound 0.00949 µM
[26] = second compound 10 µM, first compound 0.03 µM
[27] = second compound 10 µM, first compound 0.0949 µM
[28] = second compound 10 µM, first compound 0.3 µM
[29] = second compound 10 µM, first compound 0.949 µM
[30] = second compound 10 µM, first compound 3 µM
[31] = second compound 0.1 µM, first compound 0.0316 µM
[32] = second compound 0.1 µM, first compound 0.1 µM
[33] = second compound 0.1 µM, first compound 0.316 µM
[34] = second compound 0.1 µM, first compound 1 µM
[35] = second compound 0.1 µM, first compound 3.16 µM
[36] = second compound 0.1 µM, first compound 10 µM
[37] = second compound 0.316 µM, first compound 0.0316 µM
[38] = second compound 0.316 µM, first compound 0.1 µM
[39] = second compound 0.316 µM, first compound 0.316 µM
[40] = second compound 0.316 µM, first compound 1 µM
[41] = second compound 0.316 µM, first compound 3.16 µM
[42] = second compound 0.316 µM, first compound 10 µM
[43] = second compound 1 µM, first compound 0.0316 µM
[44] = second compound 1 µM, first compound 0.1 µM
[45] = second compound 1 µM, first compound 0.316 µM
[46] = second compound 1 µM, first compound 1 µM
[47] = second compound 1 µM, first compound 3.16 µM
[48] = second compound 1 µM, first compound 10 µM
[49] = second compound 3.16 µM, first compound 0.0316 µM
[50] = second compound 3.16 µM, first compound 0.1 µM
[51] = second compound 3.16 µM, first compound 0.316 µM
[52] = second compound 3.16 µM, first compound 1 µM
[53] = second compound 3.16 µM, first compound 3.16 µM
[54] = second compound 3.16 µM, first compound 10 µM
[55] = second compound 10 µM, first compound 0.0316 µM
[56] = second compound 10 µM, first compound 0.1 µM
[57] = second compound 10 µM, first compound 0.316 µM
[58] = second compound 10 µM, first compound 1 µM
[59] = second compound 10 µM, first compound 3.16 µM
[60] = second compound 10 µM, first compound 10 µM
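Further: spheroids exposed to agents for 7 days after 3 days growth.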

SMILES: Nc1ccccc1NC(=O)c1ccc(CNC(=O)OCc2cccnc2)cc1 + NC1CCC(NC2CC2c2ccccc2)CC1
- IC50 (second compound 0.1 µM): 263 nM
- IC50 (second compound 0.316 µM): 252 nM
- IC50 (second compound 1 µM): 277 nM
- IC50 (second compound 3.16 µM): 288 nM
- IC50 (second compound 10 µM): 325 nM
- viability, T/C [1]: 86.6%
- viability, T/C [2]: 85.5%
- viability, T/C [3]: 117%
- viability, T/C [4]: 43.9%
- viability, T/C [5]: 2.1%
- viability, T/C [6]: 0.32%
- viability, T/C [7]: 89.2%
- viability, T/C [8]: 98.6%
- viability, T/C [9]: 119%
- viability, T/C [10]: 40.8%
- viability, T/C [11]: 2.42%
- viability, T/C [12]: 0.34%
- viability, T/C [13]: 91.3%
- viability, T/C [14]: 104%
- viability, T/C [15]: 116%
- viability, T/C [16]: 46%
- viability, T/C [17]: 1.97%
- viability, T/C [18]: 0.29%
- viability, T/C [19]: 87.8%
- viability, T/C [20]: 96%
- viability, T/C [21]: 115%
- viability, T/C [22]: 48.1%
- viability, T/C [23]: 2.3%
- viability, T/C [24]: 0.22%
- viability, T/C [25]: 92.5%
- viability, T/C [26]: 109%
- viability, T/C [27]: 126%
- viability, T/C [28]: 53.6%
- viability, T/C [29]: 2.32%
- viability, T/C [30]: 0.27%

SMILES: CC1(C)CCC(CN2CCN(c3ccc(C(=O)NS(=O)(=O)c4ccc(NCC5CCOCC5)c([N+](=O)[O-])c4)c(Oc4cnc5[nH]ccc5c4)c3)CC2)=C(c2ccc(Cl)cc2)C1 + NC1CCC(NC2CC2c2ccccc2)CC1
- IC50 (second compound 0.1 µM): 2210 nM
- IC50 (second compound 0.316 µM): 2300 nM
- IC50 (second compound 1 µM): 2110 nM
- IC50 (second compound 3.16 µM): 1720 nM
- IC50 (second compound 10 µM): 2010 nM
- viability, T/C [31]: 71.9%
- viability, T/C [32]: 92.7%
- viability, T/C [33]: 68.4%
- viability, T/C [34]: 67.2%
- viability, T/C [35]: 42.7%
- viability, T/C [36]: 2.57%
- viability, T/C [37]: 79.3%
- viability, T/C [38]: 83.8%
- viability, T/C [39]: 68.4%
- viability, T/C [40]: 66.9%
- viability, T/C [41]: 44.4%
- viability, T/C [42]: 2.71%
- viability, T/C [43]: 88.7%
- viability, T/C [44]: 89.3%
- viability, T/C [45]: 73.8%
- viability, T/C [46]: 74.3%
- viability, T/C [47]: 37.9%
- viability, T/C [48]: 7.6%
- viability, T/C [49]: 79.6%
- viability, T/C [50]: 74.9%
- viability, T/C [51]: 78.7%
- viability, T/C [52]: 61.4%
- viability, T/C [53]: 35.7%
- viability, T/C [54]: 3.1%
- viability, T/C [55]: 91.3%
- viability, T/C [56]: 95.5%
- viability, T/C [57]: 76%
- viability, T/C [58]: 67.5%
- viability, T/C [59]: 39.5%
- viability, T/C [60]: 2.78%

SMILES: COc1ccc([C@@H](O)c2cc(-c3ncnc4cc(N5CCOCC5)ccc34)c(F)cc2Cl)nn1 + NC1CCC(NC2CC2c2ccccc2)CC1
- IC50 (second compound 0.1 µM): 1210 nM
- IC50 (second compound 0.316 µM): 1150 nM
- IC50 (second compound 1 µM): 1060 nM
- IC50 (second compound 3.16 µM): 1040 nM
- IC50 (second compound 10 µM): 957 nM
- viability, T/C [31]: 94.6%
- viability, T/C [32]: 107%
- viability, T/C [33]: 106%
- viability, T/C [34]: 58.3%
- viability, T/C [35]: 11.3%
- viability, T/C [36]: 6.63%
- viability, T/C [37]: 94.8%
- viability, T/C [38]: 104%
- viability, T/C [39]: 112%
- viability, T/C [40]: 55.7%
- viability, T/C [41]: 10.6%
- viability, T/C [42]: 5.9%
- viability, T/C [43]: 86.7%
- viability, T/C [44]: 101%
- viability, T/C [45]: 109%
- viability, T/C [46]: 52.3%
- viability, T/C [47]: 10.4%
- viability, T/C [48]: 5.85%
- viability, T/C [49]: 99.8%
- viability, T/C [50]: 93.6%
- viability, T/C [51]: 107%
- viability, T/C [52]: 51.3%
- viability, T/C [53]: 9.78%
- viability, T/C [54]: 5.03%
- viability, T/C [55]: 103%
- viability, T/C [56]: 115%
- viability, T/C [57]: 108%
- viability, T/C [58]: 47.6%
- viability, T/C [59]: 7.96%
- viability, T/C [60]: 3.23%

SMILES: NS(=O)(=O)OCC1CC(n2ccc3c(NC4CCc5ccccc54)ncnc32)CC1O (stereo not given) + NC1CCC(NC2CC2c2ccccc2)CC1
- IC50 (second compound 0.1 µM): 41.9 nM
- IC50 (second compound 0.316 µM): 42.7 nM
- IC50 (second compound 1 µM): 31.1 nM
- IC50 (second compound 3.16 µM): 32.7 nM
- IC50 (second compound 10 µM): 39 nM
- viability, T/C [1]: 109%
- viability, T/C [2]: 58.5%
- viability, T/C [3]: 29.3%
- viability, T/C [4]: 23.5%
- viability, T/C [5]: 27.9%
- viability, T/C [6]: 23.8%
- viability, T/C [7]: 110%
- viability, T/C [8]: 58.5%
- viability, T/C [9]: 30.5%
- viability, T/C [10]: 27.9%
- viability, T/C [11]: 27.3%
- viability, T/C [12]: 21.7%
- viability, T/C [13]: 103%
- viability, T/C [14]: 50.7%
- viability, T/C [15]: 23.8%
- viability, T/C [16]: 23.3%
- viability, T/C [17]: 27.7%
- viability, T/C [18]: 20.5%
- viability, T/C [19]: 109%
- viability, T/C [20]: 51.2%
- viability, T/C [21]: 31.7%
- viability, T/C [22]: 22.8%
- viability, T/C [23]: 25.1%
- viability, T/C [24]: 19.2%
- viability, T/C [25]: 94.6%
- viability, T/C [26]: 54.8%
- viability, T/C [27]: 33.1%
- viability, T/C [28]: 26.1%
- viability, T/C [29]: 21.1%
- viability, T/C [30]: 16.9%

SMILES: Cn1ncnc1C1c2n[nH]c(=O)c3cc(F)cc(c23)NC1c1ccc(F)cc1 (stereo not given) + NC1CCC(NC2CC2c2ccccc2)CC1
- IC50 (second compound 0.1 µM): > 100 nM
- IC50 (second compound 0.316 µM): > 100 nM
- IC50 (second compound 1 µM): > 100 nM
- IC50 (second compound 3.16 µM): > 100 nM
- IC50 (second compound 10 µM): > 100 nM
- viability, T/C (second compound 0.1 µM, first compound 0.000316 µM): 92.3%
- viability, T/C (second compound 0.1 µM, first compound 0.001 µM): 79.1%
- viability, T/C (second compound 0.1 µM, first compound 0.00316 µM): 88.4%
- viability, T/C (second compound 0.1 µM, first compound 0.01 µM): 79.3%
- viability, T/C [31]: 81.4%
- viability, T/C [32]: 85.7%
- viability, T/C (second compound 0.316 µM, first compound 0.000316 µM): 82.1%
- viability, T/C (second compound 0.316 µM, first compound 0.001 µM): 76.3%
- viability, T/C (second compound 0.316 µM, first compound 0.00316 µM): 69.3%
- viability, T/C (second compound 0.316 µM, first compound 0.01 µM): 71.5%
- viability, T/C [37]: 81.8%
- viability, T/C [38]: 76.7%
- viability, T/C (second compound 1 µM, first compound 0.000316 µM): 78.9%
- viability, T/C (second compound 1 µM, first compound 0.001 µM): 85.5%
- viability, T/C (second compound 1 µM, first compound 0.00316 µM): 70.7%
- viability, T/C (second compound 1 µM, first compound 0.01 µM): 71.7%
- viability, T/C [43]: 73.5%
- viability, T/C [44]: 79.9%
- viability, T/C (second compound 3.16 µM, first compound 0.000316 µM): 90%
- viability, T/C (second compound 3.16 µM, first compound 0.001 µM): 78.8%
- viability, T/C (second compound 3.16 µM, first compound 0.00316 µM): 59.2%
- viability, T/C (second compound 3.16 µM, first compound 0.01 µM): 86.7%
- viability, T/C [49]: 78.8%
- viability, T/C [50]: 85.7%
- viability, T/C (second compound 10 µM, first compound 0.000316 µM): 73%
- viability, T/C (second compound 10 µM, first compound 0.001 µM): 84.5%
- viability, T/C (second compound 10 µM, first compound 0.00316 µM): 71%
- viability, T/C (second compound 10 µM, first compound 0.01 µM): 76.3%
- viability, T/C [55]: 72.6%
- viability, T/C [56]: 88.6%
